Measurements from patent US4478844A, “Bradycardiac or analgesic 2-(N-(thienyl-2-methyl)-N-(2-fluoro-6-methyl-phenyl)-amino)-2-imidazolin e and salts thereof” (Boehringer Ingelheim KG, priority 1979, dated 1984).

Experiments:
[1] = system: mouse; assay: Locomotion-inhibiting activity (mouse); format: in vivo; conditions: sc, read-out: Locomotion inhibition (mouse) ED50 s.c.
Protocol: (§1) The end product of Example 1, i.e. 2-[N-(2-fluoro-6-bromo-phenyl)-N-(thienyl-2-methyl)-amino]-2-imidazoline (A), and [N-2,6-dibromo-phenyl)-N-(thienyl-2-methyl)-amino]-2-imidazoline (B), disclosed in column 2, lines 47-48, of U.S. Pat. No. 3,937,717, were tested for analgesic activity and locomotion-inhibiting activity by the standard test methods described in the following literature references:
Locomotion--inhibiting activity: K. Stockhaus et al., Committee on Problems of Drug Dependence (1970) 6890-6898 National Academy of Sciences.

[2] = system: mouse; assay: Analgesic activity, writhing test (mouse); format: in vivo
Protocol: as §1
Analgesic activity: Ph. Linee, J. Pharmacol. (Paris) 3,4 513-515 (1972). Writhing test.

[3] = po, read-out: Writhing test (mouse) ED50 p.o.
[4] = sc, read-out: Writhing test (mouse) ED50 s.c.

Row | SMILES | ED50 [1] | ED50 [2, 3] | ED50 [2, 4]
1 | Fc1cccc(Br)c1N(Cc1cccs1)C1=NCCN1 [A, 2-[N-(2-fluoro-6-bromo-phenyl)-N-(thienyl-2-methyl)-amino]-2-imidazoline] | 0.13 mg/kg | 0.28 mg/kg | 0.12 mg/kg
2 | Brc1cccc(Br)c1N(Cc1cccs1)C1=NCCN1 [B] | 0.6 mg/kg | 0.6 mg/kg | 0.3 mg/kg
